Assay results published in US11905306B2 (priority 2021, dated 2024).

Legend:
Toronto 2 SARS CoV-1 = assay: organism not typed; assay type: cell-based; conditions: Vero C1008, 72 h, read-out: SARS-1 EC50 (μM) VeroE6
USA_WA1/2020 SARS CoV-2 = assay: microbe, parasite or virus in culture; assay type: cell-based; conditions: Severe acute respiratory syndrome coronavirus 2, Vero C1008, 72 h, read-out: SARS-2 EC50 (μM) VeroE6
SARS-2 [1] = assay: microbe, parasite or virus in culture; assay type: cell-based; conditions: Severe acute respiratory syndrome coronavirus 2, read-out: SARS-2 VU-EC50 (μM) (A549-hACE2)
SARS-2 [2] = tested on: SARS-2
in vitro = conditions: African green monkey

Structure (SMILES): O=C1CCc2cc(C(=O)Nc3cccc(C#Cc4ccccn4)c3)ccc2N1 [Compound 1, 2-Oxo-N-(3-(pyridin-2-ylethynyl)phenyl)-1,2,3,4-tetrahydroquinoline-6-carboxamide]
- EC50 (Toronto 2 SARS CoV-1): 5.07 ± 2.89 µM
- EC50 (USA_WA1/2020 SARS CoV-2): 5.81 ± 2.51 µM
- EC50 (SARS-2 [1]): 7.32 µM
- SARS-2 VU-VTR @ 20 μM (A549-hACE2) (logs) (SARS-2 [2]): 1.95 logs
- CC50 (in vitro): > 30 µM

Structure (SMILES): CN1C(=O)CCc2cc(C(=O)Nc3cccc(C#Cc4ccccn4)c3)ccc21 [Compound 2, 1-Methyl-2-oxo-N-(3-(pyridin-2-ylethynyl)phenyl)-1,2,3,4-tetrahydroquinoline-6-carboxamide]
- EC50 (Toronto 2 SARS CoV-1): 1.46 µM
- EC50 (USA_WA1/2020 SARS CoV-2): 2.55 µM
- EC50 (SARS-2 [1]): 3.59 µM
- SARS-2 VU-VTR @ 20 μM (A549-hACE2) (logs) (SARS-2 [2]): 3.32 logs
- CC50 (in vitro): > 30 µM

Structure (SMILES): O=C1CCCc2cc(C(=O)Nc3cccc(C#Cc4ccccn4)c3)ccc2N1 [Compound 4, 2-Oxo-N-(3-(pyridin-2-ylethynyl)phenyl)-2,3,4,5-tetrahydro-1H-benzo[b]azepine-7-carboxamide]
- EC50 (Toronto 2 SARS CoV-1): 1.39 µM
- EC50 (USA_WA1/2020 SARS CoV-2): 1.5 µM
- EC50 (SARS-2 [1]): 1.5 µM
- SARS-2 VU-VTR @ 20 μM (A549-hACE2) (logs) (SARS-2 [2]): 2.55 logs
- CC50 (in vitro): 22.9 µM

Structure (SMILES): CC(=O)Nc1ccc(C(=O)Nc2cccc(C#Cc3ccccn3)c2)cc1 [Compound 5, 4-Acetamido-N-(3-(pyridin-2-ylethynyl)phenyl)benzamide]
- EC50 (Toronto 2 SARS CoV-1): 2.14 µM
- EC50 (USA_WA1/2020 SARS CoV-2): 3.89 µM
- EC50 (SARS-2 [1]): 3.58 µM
- SARS-2 VU-VTR @ 20 μM (A549-hACE2) (logs) (SARS-2 [2]): 2.05 logs
- CC50 (in vitro): > 30 µM

Structure (SMILES): O=C(Nc1cccc(C#Cc2ccccn2)c1)c1ccc(NC(=O)C2CC2)cc1 [Compound 8, 4-(Cyclopropanecarboxamido)-N-(3-(pyridin-2-ylethynyl)phenyl)benzamide]
- EC50 (Toronto 2 SARS CoV-1): 0.47 µM
- EC50 (USA_WA1/2020 SARS CoV-2): 0.94 µM
- EC50 (SARS-2 [1]): 1.07 µM
- SARS-2 VU-VTR @ 20 μM (A549-hACE2) (logs) (SARS-2 [2]): 1.53 logs
- CC50 (in vitro): > 30 µM

Structure (SMILES): O=C(Nc1cccc(C#Cc2ccccn2)c1)c1ccc(NC(=O)C2CCC2)cc1 [Compound 9, 4-(Cyclobutanecarboxamido)-N-(3-(pyridin-2-ylethynyl)phenyl)benzamide]
- EC50 (Toronto 2 SARS CoV-1): 0.21 µM
- EC50 (USA_WA1/2020 SARS CoV-2): 0.26 µM
- EC50 (SARS-2 [1]): 0.69 µM
- SARS-2 VU-VTR @ 20 μM (A549-hACE2) (logs) (SARS-2 [2]): 1.88 logs
- CC50 (in vitro): > 30 µM

Structure (SMILES): O=C(Nc1cccc(C#Cc2ccccn2)c1)c1ccc(N2CCNC2=O)cc1 [Compound 14, 4-(2-Oxoimidazolidin-1-yl)-N-(3-(pyridin-2-ylethynyl)phenyl)benzamide]
- EC50 (Toronto 2 SARS CoV-1): 1.05 µM
- EC50 (USA_WA1/2020 SARS CoV-2): 1.06 µM
- EC50 (SARS-2 [1]): 2.31 µM
- SARS-2 VU-VTR @ 20 μM (A549-hACE2) (logs) (SARS-2 [2]): 1.84 logs
- CC50 (in vitro): > 30 µM

Structure (SMILES): CC(C)N1CCN(c2ccc(C(=O)Nc3cccc(C#Cc4ccccn4)c3)cc2)C1=O [Compound 17, 4-(3-Isopropyl-2-oxoimidazolidin-1-yl)-N-(3-(pyridin-2-ylethynyl)phenyl)benzamide]
- EC50 (Toronto 2 SARS CoV-1): 2.37 µM
- EC50 (USA_WA1/2020 SARS CoV-2): 0.61 µM
- EC50 (SARS-2 [1]): 0.43 µM
- SARS-2 VU-VTR @ 20 μM (A549-hACE2) (logs) (SARS-2 [2]): 2.12 logs
- CC50 (in vitro): > 30 µM

Structure (SMILES): O=C(Nc1cccc(C#Cc2ccccn2)c1)c1ccc(N2CCCCC2=O)cc1 [Compound 22, 4-(2-Oxopiperidin-1-yl)-N-(3-(pyridin-2-ylethynyl)phenyl)benzamide]
- EC50 (Toronto 2 SARS CoV-1): 1.3 µM
- EC50 (USA_WA1/2020 SARS CoV-2): 1.87 µM
- EC50 (SARS-2 [1]): 1.05 µM
- SARS-2 VU-VTR @ 20 μM (A549-hACE2) (logs) (SARS-2 [2]): 2.4 logs
- CC50 (in vitro): > 30 µM

Structure (SMILES): O=C(Nc1ccc(C(=O)Nc2cccc(C#Cc3ccccn3)c2)cc1)c1ccc(F)cc1 [Compound 26, 4-Fluoro-N-(4-((3-(pyridin-2-ylethynyl)phenyl)carbamoyl)phenyl)benzamide]
- EC50 (Toronto 2 SARS CoV-1): 0.35 µM
- EC50 (USA_WA1/2020 SARS CoV-2): 0.49 µM
- EC50 (SARS-2 [1]): 0.69 µM
- SARS-2 VU-VTR @ 20 μM (A549-hACE2) (logs) (SARS-2 [2]): 1.16 logs
- CC50 (in vitro): > 30 µM

Structure (SMILES): CC(=O)Nc1ccc(C(=O)Nc2cccc(C#Cc3ccccn3)c2)cc1F [Compound 29, 4-Acetamido-3-fluoro-N-(3-(pyridin-2-ylethynyl)phenyl)benzamide]
- EC50 (Toronto 2 SARS CoV-1): 0.76 µM
- EC50 (USA_WA1/2020 SARS CoV-2): 1.07 µM
- EC50 (SARS-2 [1]): 1.86 µM
- SARS-2 VU-VTR @ 20 μM (A549-hACE2) (logs) (SARS-2 [2]): 2.6 logs
- CC50 (in vitro): > 30 µM

Structure (SMILES): O=C(Nc1cccc(C#Cc2ccccn2)c1)c1ccc(-c2ccn[nH]2)cc1 [Compound 40, 4-(1H-Pyrazol-5-yl)-N-(3-(pyridin-2-ylethynyl)phenyl)benzamide]
- EC50 (Toronto 2 SARS CoV-1): 0.53 µM
- EC50 (USA_WA1/2020 SARS CoV-2): 1 µM
- EC50 (SARS-2 [1]): 0.81 µM
- SARS-2 VU-VTR @ 20 μM (A549-hACE2) (logs) (SARS-2 [2]): 3.2 logs
- CC50 (in vitro): 38.6 µM

Structure (SMILES): COC(=O)c1ccc(C(=O)Nc2cccc(C#Cc3ccccn3)c2)cc1 [Compound 43, Methyl 4-((3-(pyridin-2-ylethynyl)phenyl)carbamoyl)benzoate]
- EC50 (Toronto 2 SARS CoV-1): 0.26 µM
- EC50 (USA_WA1/2020 SARS CoV-2): 0.52 µM
- EC50 (SARS-2 [1]): 0.58 µM
- SARS-2 VU-VTR @ 20 μM (A549-hACE2) (logs) (SARS-2 [2]): 2.36 logs
- CC50 (in vitro): > 30 µM

Structure (SMILES): CC(C)(C)OC(=O)c1ccc(C(=O)Nc2cccc(C#Cc3ccccn3)c2)cc1 [Compound 44, tert-Butyl 4-((3-(pyridin-2-ylethynyl)phenyl)carbamoyl)benzoate]
- EC50 (Toronto 2 SARS CoV-1): 0.07 µM
- EC50 (USA_WA1/2020 SARS CoV-2): 0.16 µM
- EC50 (SARS-2 [1]): 0.22 µM
- SARS-2 VU-VTR @ 20 μM (A549-hACE2) (logs) (SARS-2 [2]): 2.41 logs
- CC50 (in vitro): 24.2 µM

Structure (SMILES): COc1cc(C#Cc2ccccn2)cc(NC(=O)c2ccc3c(c2)CCC(=O)N3)c1 [Compound 46, N-(3-Methoxy-5-(pyridin-2-ylethynyl)phenyl)-2-oxo-1,2,3,4-tetrahydroquinoline-6-carboxamide]
- EC50 (Toronto 2 SARS CoV-1): 0.83 µM
- EC50 (USA_WA1/2020 SARS CoV-2): 0.78 µM
- EC50 (SARS-2 [1]): 0.53 µM
- SARS-2 VU-VTR @ 20 μM (A549-hACE2) (logs) (SARS-2 [2]): 2.66 logs
- CC50 (in vitro): > 30 µM

Structure (SMILES): COc1cc(C#Cc2ccccn2)cc(NC(=O)c2ccc(N3CCCCC3=O)cc2)c1 [Compound 48, N-(3-Methoxy-5-(pyridin-2-ylethynyl)phenyl)-4-(2-oxopiperidin-1-yl)benzamide]
- EC50 (Toronto 2 SARS CoV-1): 0.21 µM
- EC50 (USA_WA1/2020 SARS CoV-2): 0.45 µM
- EC50 (SARS-2 [1]): 0.1 µM
- SARS-2 VU-VTR @ 20 μM (A549-hACE2) (logs) (SARS-2 [2]): 3.08 logs
- CC50 (in vitro): > 30 µM

Structure (SMILES): O=C(Nc1cc(C#Cc2ccccn2)cc(OC(F)(F)F)c1)c1ccc(N2CCCCC2=O)cc1 [Compound 50, 4-(2-Oxopiperidin-1-yl)-N-(3-(pyridin-2-ylethynyl)-5-(trifluoromethoxy)phenyl)benzamide]
- EC50 (Toronto 2 SARS CoV-1): 0.13 µM
- EC50 (USA_WA1/2020 SARS CoV-2): 0.18 µM
- EC50 (SARS-2 [1]): 0.09 µM
- SARS-2 VU-VTR @ 20 μM (A549-hACE2) (logs) (SARS-2 [2]): 2.59 logs
- CC50 (in vitro): > 30 µM

Structure (SMILES): O=C1CCc2cc(NC(=O)c3cccc(C#Cc4ccccn4)c3)ccc2N1 [Compound 54, N-(2-oxo-1,2,3,4-tetrahydroquinolin-6-yl)-3-(pyridin-2-ylethynyl)benzamide]
- EC50 (Toronto 2 SARS CoV-1): > 30 µM
- EC50 (USA_WA1/2020 SARS CoV-2): 3 µM
- EC50 (SARS-2 [1]): 1.42 µM
- SARS-2 VU-VTR @ 20 μM (A549-hACE2) (logs) (SARS-2 [2]): 2.24 logs
- CC50 (in vitro): > 30 µM

Structure (SMILES): CC(=O)Nc1ccc(NC(=O)c2cccc(C#Cc3ccccn3)c2)cn1 [Compound 71, N-(6-acetamidopyridin-3-yl)-3-(pyridin-2-ylethynyl)benzamide]
- EC50 (Toronto 2 SARS CoV-1): 3.98 µM
- EC50 (USA_WA1/2020 SARS CoV-2): 4.13 µM
- CC50 (in vitro): > 30 µM

Structure (SMILES): COc1cc(C#Cc2ccccn2)cc(C(=O)Nc2ccc(N3CCCCC3=O)cc2)c1 [Compound 72, 3-methoxy-N-(4-(2-oxopiperidin-1-yl)phenyl)-5-(pyridin-2-ylethynyl)benzamide]
- EC50 (Toronto 2 SARS CoV-1): 0.24 µM
- EC50 (USA_WA1/2020 SARS CoV-2): 0.51 µM
- CC50 (in vitro): 26.6 µM

Structure (SMILES): O=C(Nc1ccc(N2CCCS2(=O)=O)cc1)c1cccc(C#Cc2ccccn2)c1 [Compound 74, N-(4-(1,1-dioxidoisothiazolidin-2-yl)phenyl)-3-(pyridin-2-ylethynyl)benzamide]
- EC50 (Toronto 2 SARS CoV-1): 0.91 µM
- EC50 (USA_WA1/2020 SARS CoV-2): > 30 µM
- CC50 (in vitro): > 30 µM

Structure (SMILES): COc1cc(C#Cc2ccccn2)cc(C(=O)Nc2ccc(N3CCCCS3(=O)=O)cc2)c1 [Compound 75, N-(4-(1,1-dioxido-1,2-thiazinan-2-yl)phenyl)-3-methoxy-5-(pyridin-2-ylethynyl)benzamide]
- EC50 (Toronto 2 SARS CoV-1): 0.065 µM
- EC50 (USA_WA1/2020 SARS CoV-2): 0.128 µM
- CC50 (in vitro): > 30 µM

Structure (SMILES): COc1cc(C#Cc2ccccn2)cc(NC(=O)c2ccc(N3CCCCS3(=O)=O)cc2)c1 [Compound 76]
- EC50 (Toronto 2 SARS CoV-1): 0.172 µM
- EC50 (USA_WA1/2020 SARS CoV-2): 0.189 µM
- CC50 (in vitro): > 30 µM

Structure (SMILES): O=C(Nc1cccc(C#Cc2ccccn2)c1)c1ccc(N2CCCCS2(=O)=O)cc1 [Compound 77]
- EC50 (Toronto 2 SARS CoV-1): 0.791 µM
- EC50 (USA_WA1/2020 SARS CoV-2): 0.957 µM
- CC50 (in vitro): > 30 µM

Structure (SMILES): N#Cc1cc(C#Cc2ccccn2)cc(NC(=O)c2ccc(N3CCCCC3=O)cc2)c1 [Compound 78]
- EC50 (Toronto 2 SARS CoV-1): 1.54 µM
- EC50 (USA_WA1/2020 SARS CoV-2): 1.97 µM
- CC50 (in vitro): > 30 µM

Structure (SMILES): COc1cc(C#Cc2ccccn2)cc(C(=O)Nc2ccc(CC3CC(=O)NC3=O)cc2)c1 (stereo not drawn) [Compound 79]
- EC50 (Toronto 2 SARS CoV-1): 4.45 µM
- EC50 (USA_WA1/2020 SARS CoV-2): 8.19 µM
- CC50 (in vitro): > 30 µM
